From PubChem BioAssay AID1963975 (Molecular Pharmacology Branch, DTP, NCI, 2024)

Test system: 624824-186-R-J2-PDC multicell spheroids, viability
Experiment: Anticancer human tumor 624824-186-R-J2-PDC patient-derived colon adenocarcinoma cell line growth inhibition [PI3K]
Conditions: for viability, T/C: stronger effect = lower value
Excerpt: Combinatorial screen of targeted agents with the PI3K inhibitors inavolisib, alpelisib, duvelisib, and copanlisib in multi-cell type tumor spheroids
A high-throughput screen of multi-cell type tumor spheroids was designed to identify active combinations of targeted small molecules and PI3K pathway inhibitors. Complex spheroids include a stromal component modeled by human endothelial cells (HUVEC) and fibroblasts modeled by human mesenchymal stem cells (MSCs). The concentration ranges selected for each drug and investigational agent were based upon clinically achievable concentrations if the clinical Cmax of the agent was known.
Compounds. The drugs and investigational agents: inavolisib (NSC800729), alpelisib (NSC765974), duvelisib (NSC772469), copanlisib (NSC816437), ipatasertib (NSC767898), afuresertib (NSC778305), talazoparib (NSC767125), sapanisertib (NSC764658), selumetinib (NSC741078), tovorafenib (DAY101, NSC766906), vemurafenib (NSC761431), ravoxertinib (NSC781343), sotorasib (NSC818433), MRTX1133 (NSC 836407), abemaciclib (NSC 768073), palbociclib (NSC758247), venetoclax (NSC 766270), SY5609 (NSC837396), enzalutamide (NSC755605), and darolutamide (NSC825331), were obtained from the National Cancer Institute (NCI) Developmental Therapeutics Program Chemical Repository. The FDA-approved anticancer drug set is available from the NCI Developmental Therapeutics Program. […] The stock solutions were prepared in dimethyl sulfoxide (DMSO, Sigma-Aldrich, St. Louis, MO, cat. D2650) at 800-fold the tested concentration and stored at -70 degrees C prior to their use. All drugs and investigational agents were tested over a range starting from a high concentration at or near the clinical Cmax and decreasing in half-log increments. If the clinical Cmax for an agent had not been determined, the highest concentration tested was 10 microM.
Cell Culture. All cells were maintained in an incubator at 37 degrees C and 5% CO2 with 95% humidity. The PDC lines were cultured according to standard operating procedures established by the NCI PDMR (https://pdmr.cancer.gov/sops/default.htm). All PDCs were thawed and cultured in Matrigel-coated flasks prepared with a working solution of 1X Ham's F-12 nutrient mix, without supplementation (Invitrogen, Waltham, MA, cat. 11765054), 100 U/mL penicillin-streptomycin (Invitrogen, cat. 15140122), and 2.5% Matrigel (Corning Inc., Corning, NY, cat. 354248) for the first three passages. The 354836-022-R-J1-PDC, 475296-252-R-J1-PDC, and 997726-040-R-J2-PDC lines were cultured in 6A media, which includes advanced DMEM/F-12 (Thermo Fisher Scientific, cat. 12634028), 10 mM HEPES (Thermo Fisher Scientific, cat. 15630080), 1X GlutaMAX supplement (Thermo Fisher Scientific, cat. 35050061), 0.1 mg/mL primocin (InvivoGen, San Diego, CA, cat. ant-pm-2), 10% defined fetal bovine serum, heat inactivated (HyClone Laboratories Inc., Logan, UT, cat. SH30070.03HI), 50% L-WRN conditioned media (ATCC, cat. CRL-3276), 1.25 mM N-Acetyl-L-cysteine (Sigma-Aldrich, cat. A9165), 10 mM nicotinamide (Sigma-Aldrich, cat. N0636), 1X B-27 supplement (Thermo Fisher Scientific, cat. 17504044), 1X N-2 supplement (Thermo Fisher Scientific, cat. 17502048), and 10 microM Y-27632 dihydrochloride (Tocris Bioscience, Bristol, United Kingdom, cat. 1254). The 624824-186-R-J2-PDC line was cultured in 6C/Colon 1B media, which includes all 6A media components plus 50 ng/mL human EGF recombinant protein (Thermo Fisher Scientific, cat. PHG0311). […]

[1] = curve of first compound, second compound 0.00316 µM
[2] = curve of first compound, second compound 0.01 µM
[3] = curve of first compound, second compound 0.0316 µM
[4] = curve of first compound, second compound 0.1 µM
[5] = curve of first compound, second compound 0.316 µM
[6] = curve of first compound, second compound 1 µM
[7] = second compound 0.00316 µM, first compound 0.0316 µM
[8] = second compound 0.00316 µM, first compound 0.1 µM
[9] = second compound 0.01 µM, first compound 0.0316 µM
[10] = second compound 0.01 µM, first compound 0.1 µM
[11] = second compound 0.0316 µM, first compound 0.0316 µM
[12] = second compound 0.0316 µM, first compound 0.1 µM
[13] = second compound 0.1 µM, first compound 0.0316 µM
[14] = second compound 0.1 µM, first compound 0.1 µM
[15] = second compound 0.316 µM, first compound 0.0316 µM
[16] = second compound 0.316 µM, first compound 0.1 µM
[17] = second compound 1 µM, first compound 0.0316 µM
[18] = second compound 1 µM, first compound 0.1 µM
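Further: spheroids exposed to agents for 7 days before viability read.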
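Wherever viability, T/C is given: 100% = DMSO vehicle treated spheroids.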

Work on `C=CC(=O)N1CCN(c2nc(=O)n(-c3c(C)ccnc3C(C)C)c3nc(-c4c(O)cccc4F)c(F)cc23)C(C)C1` (centres undefined) + COc1c(OCCCN2CCOCC2)ccc2c3n(c(=NC(=O)c4cnc(N)nc4)nc12)CCN3 yielded an IC50 [1] greater than 10000 nM, an IC50 [2] greater than 10000 nM and an IC50 [3] greater than 10000 nM. It also gave an IC50 [4] greater than 10000 nM, an IC50 [5] greater than 10000 nM and an IC50 [6] greater than 10000 nM. It also gave a viability, T/C [7] of 96.5%, a viability, T/C [8] of 109% and a viability, T/C (second compound 0.00316 µM, first compound 0.316 µM) of 95.6%. The viability, T/C (second compound 0.00316 µM, first compound 1 µM) was 77.9%, the viability, T/C (second compound 0.00316 µM, first compound 3.16 µM) was 88.7% and the viability, T/C (second compound 0.00316 µM, first compound 10 µM) was 80.8%. For the same compound, the viability, T/C [9] was 102%, the viability, T/C [10] was 98.4% and the viability, T/C (second compound 0.01 µM, first compound 0.316 µM) was 101%. For the same compound, the viability, T/C (second compound 0.01 µM, first compound 1 µM) was 75.3%, the viability, T/C (second compound 0.01 µM, first compound 3.16 µM) was 93% and the viability, T/C (second compound 0.01 µM, first compound 10 µM) was 88.4%. For the same compound, the viability, T/C [11] was 88.4%, the viability, T/C [12] was 86.5% and the viability, T/C (second compound 0.0316 µM, first compound 0.316 µM) was 97.3%. The viability, T/C (second compound 0.0316 µM, first compound 1 µM) was 75.1%, the viability, T/C (second compound 0.0316 µM, first compound 3.16 µM) was 89.5% and the viability, T/C (second compound 0.0316 µM, first compound 10 µM) was 81.7%. It also gave a viability, T/C [13] of 80.4%, a viability, T/C [14] of 61.1% and a viability, T/C (second compound 0.1 µM, first compound 0.316 µM) of 80.1%. It also gave a viability, T/C (second compound 0.1 µM, first compound 1 µM) of 67.9%, a viability, T/C (second compound 0.1 µM, first compound 3.16 µM) of 69% and a viability, T/C (second compound 0.1 µM, first compound 10 µM) of 69%. The viability, T/C [15] was 62.6%, the viability, T/C [16] was 59.3% and the viability, T/C (second compound 0.316 µM, first compound 0.316 µM) was 59.5%. It also gave a viability, T/C (second compound 0.316 µM, first compound 1 µM) of 61.6%, a viability, T/C (second compound 0.316 µM, first compound 3.16 µM) of 69.8% and a viability, T/C (second compound 0.316 µM, first compound 10 µM) of 61%. It also gave a viability, T/C [17] of 59.1%, a viability, T/C [18] of 53% and a viability, T/C (second compound 1 µM, first compound 0.316 µM) of 65.5%. For the same compound, the viability, T/C (second compound 1 µM, first compound 1 µM) was 58.1%, the viability, T/C (second compound 1 µM, first compound 3.16 µM) was 64.5% and the viability, T/C (second compound 1 µM, first compound 10 µM) was 60.5%.
`Cn1ncnc1[C@H]1c2n[nH]c(=O)c3cc(F)cc(c23)N[C@@H]1c1ccc(F)cc1` was tested, and the viability, T/C (compound 0.000316 µM) was 99.1% [middle of 4 runs], the viability, T/C (compound 0.00316 µM) was 90.5% [middle of 4 runs] and the viability, T/C (compound 0.0316 µM) was 103% [middle of 4 runs]. The viability, T/C (compound 0.1 µM) was 89.3% [middle of 4 runs] and the IC50 (curve of compound) was greater than 100 nM.
With `CC(=O)c1c(C)c2cnc(Nc3ccc(N4CCNCC4)cn3)nc2n(C2CCCC2)c1=O` + COc1c(OCCCN2CCOCC2)ccc2c3n(c(=NC(=O)c4cnc(N)nc4)nc12)CCN3 the IC50 [1] was greater than 100 nM, the IC50 [2] was greater than 100 nM and the IC50 [3] was greater than 100 nM. For the same compound, the IC50 [4] was greater than 100 nM, the IC50 [5] was greater than 100 nM and the IC50 [6] was greater than 100 nM. The viability, T/C (second compound 0.00316 µM, first compound 0.000316 µM) was 95.5%, the viability, T/C (second compound 0.00316 µM, first compound 0.001 µM) was 94.7% and the viability, T/C (second compound 0.00316 µM, first compound 0.00316 µM) was 90.6%. The viability, T/C (second compound 0.00316 µM, first compound 0.01 µM) was 98.7%, the viability, T/C [7] was 105% and the viability, T/C [8] was 84%. It also gave a viability, T/C (second compound 0.01 µM, first compound 0.000316 µM) of 104%, a viability, T/C (second compound 0.01 µM, first compound 0.001 µM) of 90% and a viability, T/C (second compound 0.01 µM, first compound 0.00316 µM) of 86.7%. The viability, T/C (second compound 0.01 µM, first compound 0.01 µM) was 94.3%, the viability, T/C [9] was 97.6% and the viability, T/C [10] was 96.5%. It also gave a viability, T/C (second compound 0.0316 µM, first compound 0.000316 µM) of 82.7%, a viability, T/C (second compound 0.0316 µM, first compound 0.001 µM) of 94.4% and a viability, T/C (second compound 0.0316 µM, first compound 0.00316 µM) of 91.4%. The viability, T/C (second compound 0.0316 µM, first compound 0.01 µM) was 86.7%, the viability, T/C [11] was 89% and the viability, T/C [12] was 69.2%. The viability, T/C (second compound 0.1 µM, first compound 0.000316 µM) was 65.9%, the viability, T/C (second compound 0.1 µM, first compound 0.001 µM) was 77.2% and the viability, T/C (second compound 0.1 µM, first compound 0.00316 µM) was 78.2%. The viability, T/C (second compound 0.1 µM, first compound 0.01 µM) was 70.8%, the viability, T/C [13] was 70% and the viability, T/C [14] was 55.6%. The viability, T/C (second compound 0.316 µM, first compound 0.000316 µM) was 61.4%, the viability, T/C (second compound 0.316 µM, first compound 0.001 µM) was 68.6% and the viability, T/C (second compound 0.316 µM, first compound 0.00316 µM) was 61.4%. It also gave a viability, T/C (second compound 0.316 µM, first compound 0.01 µM) of 57.9%, a viability, T/C [15] of 66.9% and a viability, T/C [16] of 53.4%. For the same compound, the viability, T/C (second compound 1 µM, first compound 0.000316 µM) was 59%, the viability, T/C (second compound 1 µM, first compound 0.001 µM) was 58% and the viability, T/C (second compound 1 µM, first compound 0.00316 µM) was 58.7%. It also gave a viability, T/C (second compound 1 µM, first compound 0.01 µM) of 58.4%, a viability, T/C [17] of 62.9% and a viability, T/C [18] of 55.7%.
